Measurements reported in US20120095025A1, “SUBSTITUTED [1,2,4]TRIAZOLO[1,5-a]PYRIMIDINES AND THEIR USE AS POTASSIUM CHANNEL MODULATORS” (NEUROSEARCH A/S, priority 2009, published 2012).

Each compound was assayed against T1, hSK1 channels (Homo sapiens, UniProt Q92952) (assay: Whole-cell patch-clamp recording of SK channel current in HEK293 cells expressing hSK1). Details: concentration required for decreasing the baseline current to 50% of the initial current.
T1 construct: expressed in transfected cells; host or cells: HEK293
Assay type: cell-based
Description: The ionic current through small-conductance Ca^2+-activated K^+ channels (SK channels, subtype 1) is recorded using the whole-cell configuration of the patch-clamp technique in a classic patch-clamp set-up using HEK293 tissue culture cells expressing hSK1 channels as described in e.g. WO 2006/100212.
For inhibitors a Kd value, defined as the concentration required for decreasing the baseline current to 50% of the initial current, was estimated.

First: CC(Oc1ccc(C(C)(C)C)cc1)c1ccnc2nc(NC=NO)nn12 (centres unmarked) [Example 1, N-{7-[1-(4-tert-Butylphenoxy)ethyl]-[1,2,4]triazolo[1,5-a]pyrimidin-2-yl}-N′-hydroxy-formamidine]
Second: CON=CNc1nc2nccc(C(C)Oc3ccc(C(C)(C)C)cc3)n2n1 (centres unmarked) [Example A, N-{7-[1-(4-tert-Butylphenoxy)ethyl]-[1,2,4]triazolo[1,5-a]pyrimidin-2-yl}-N′-methoxy-formamidine]
The Kd of the first is higher: 100 to 1000 nM for the first, less than 100 nM for the second. The second binds more tightly here.

Compared with `CCCON=CNc1nc2nccc(C(C)Oc3ccc(C(C)(C)C)cc3)n2n1` (centres unmarked) [Example 2, N-{7-[1-(4-tert-Butylphenoxy)ethyl]-[1,2,4]triazolo[1,5-a]pyrimidin-2-yl}-N′-propyloxy-formamidine], `CC(C)ON=CNc1nc2nccc(C(C)Oc3ccc(C(C)(C)C)cc3)n2n1` (centres unmarked) [Example 3, N-{7-[1-(4-tert-Butylphenoxy)ethyl]-[1,2,4]triazolo[1,5-a]pyrimidin-2-yl}-N′-isopropyloxy-formamidine] is higher in Kd: less than 100 nM for the first, greater than 3000 nM for the second.

Compared with `CON=CNc1nc2nccc(COc3ccc(C(C)(C)C)cc3)n2n1` [Example 4, N-[7-(4-tert-Butylphenoxymethyl)-[1,2,4]triazolo[1,5-a]pyrimidin-2-yl]-N′-methoxy-formamidine], `CCC(Oc1ccc(C(C)(C)C)cc1)c1ccnc2nc(NC=NOC)nn12` (centres unmarked) [Example 8, N-{7-[1-(4-tert-Butylphenoxy)propyl]-[1,2,4]triazolo[1,5-a]pyrimidin-2-yl}-N′-methoxy-formamidine] is lower in Kd: greater than 3000 nM for the first, less than 100 nM for the second. The second binds more tightly here.

`CON=CNc1nc2nccc(C(C)Oc3ccc(C4CCCC4)cc3)n2n1` (centres unmarked) [Example 5, N-{7-[1-(4-cyclopentyl-phenoxy)ethyl]-[1,2,4]triazolo[1,5-a]pyrimidin-2-yl}-N′-methoxy-formamidine] and `CON=CNc1nc2nccc(C(C)Oc3ccc(C(C)C)cc3)n2n1` (centres unmarked) [Example 6, N-{7-[1-(4-Isopropylphenoxy)ethyl]-[1,2,4]triazolo[1,5-a]pyrimidin-2-yl}-N′-methoxy-formamidine] cannot be ordered by Kd: greater than 3000 nM for the first, greater than 3000 nM for the second.

`CON=CNc1nc2nccc(C(C)Oc3ccc(C(C)(C)C)cc3C)n2n1` (centres unmarked) [Example 7, N-{7-[1-(4-tert-Butyl-2-methylphenoxy)ethyl]-[1,2,4]triazolo[1,5-a]pyrimidin-2-yl}-N′-methoxy-formamidine] and `CON=CNc1nc2nccc(C(C)Oc3ccc(OC(C)(C)C)cc3)n2n1` (centres unmarked) [Example 9, N-{7-[1-(4-tert-Butoxy-phenoxy)ethyl]-[1,2,4]triazolo[1,5-a]pyrimidin-2-yl}-N′-methoxy-formamidine] cannot be ordered by Kd: less than 100 nM for the first, less than 100 nM for the second.

`CON=CNc1nc2nccc(C(C)(C)Oc3ccc(C(C)(C)C)cc3)n2n1` [Example 10, N-{7-[1-(4-tert-Butylphenoxy)-1-methyl-ethyl]-[1,2,4]triazolo[1,5-a]pyrimidin-2-yl}-N′-methoxy-formamidine] gave a Kd of 100 to 1000 nM.
